Source: a compilation of properties of binary mixtures (doi:10.1021/je060123k)

Assay: xn = mol fraction of the nth substance listed
Conditions: 101 kPa

CCCO + CCCCCCCCn1cc[n+](C)c1.[Cl-]
x1 = 1
Conditions	speed of sound [m/s]	viscosity [mPa·s]
298.15 K	1205	1.951
313.15 K	1155	1.383
328.15 K	1105	1.007

CCO + CCCCCCCCn1cc[n+](C)c1.[Cl-]
x1 = 1
Conditions	speed of sound [m/s]	viscosity [mPa·s]
298.15 K	1143	1.085
313.15 K	1093	0.826
328.15 K	1043	0.641

CO + CCCCCCCCn1cc[n+](C)c1.[Cl-]
x1 = 1
Conditions	speed of sound [m/s]	viscosity [mPa·s]
298.15 K	1103	0.543
328.15 K	1008	0.369

CCCCCCCCn1cc[n+](C)c1.[Cl-] + CCCO
Conditions	speed of sound, 298.15 K [m/s]	speed of sound, 313.15 K [m/s]	speed of sound, 328.15 K [m/s]	viscosity, 298.15 K [mPa·s]	viscosity, 313.15 K [mPa·s]	viscosity, 328.15 K [mPa·s]
x2 = 0	–	1624	–	–	4100	–
x2 = 0.1071	1659	1584	–	7200	1720	–
x2 = 0.2407	1593	1539	–	2056	650	–
x2 = 0.3036	1566	1517	–	910	334	–
x2 = 0.407	1531	–	1445	386	–	77.4
x2 = 0.4887	1504	1461	1421	179	84.1	42.7
x2 = 0.6209	1456	1414	–	50.81	28.81	–
x2 = 0.7248	–	1369	–	–	12.22	–
x2 = 0.8516	1342	1296	1250	6.34	4.4	3.189
x2 = 0.9024	–	1257	1211	–	3.23	2.352
x2 = 0.94	1271	1223	–	3.238	2.293	–
x2 = 0.9729	1238	1188	–	2.648	1.878	–

CCCCCCCCn1cc[n+](C)c1.[Cl-] + CCO
Conditions	speed of sound, 298.15 K [m/s]	speed of sound, 313.15 K [m/s]	speed of sound, 328.15 K [m/s]	viscosity, 298.15 K [mPa·s]	viscosity, 313.15 K [mPa·s]	viscosity, 328.15 K [mPa·s]
x2 = 0	1721	1624	1560	21000	4100	1091
x2 = 0.0449	–	1606	–	–	2717	–
x2 = 0.1305	–	1578	1527	–	1411	481
x2 = 0.2969	1579	1530	1487	1127	394	165
x2 = 0.4753	1518	1477	1438	186	88	45.2
x2 = 0.6858	1437	–	–	21.26	–	–
x2 = 0.8809	1304	1258	–	3.5	2.601	–
x2 = 0.917	1264	1218	1175	2.551	1.919	1.488
x2 = 0.955	1215	1169	1122	1.754	1.341	1.038
x2 = 0.9794	1179	–	–	1.396	–	–

CCCCCCCCn1cc[n+](C)c1.[Cl-] + CO
Conditions	speed of sound, 298.15 K [m/s]	speed of sound, 313.15 K [m/s]	speed of sound, 328.15 K [m/s]	viscosity, 298.15 K [mPa·s]	viscosity, 313.15 K [mPa·s]	viscosity, 328.15 K [mPa·s]
x1 = 0.0197	–	1110	1070	–	0.594	0.497
x2 = 0	1721	1624	1560	21000	4100	1091
x2 = 0.0565	1683	1602	1548	10400	2450	760
x2 = 0.1686	1638	1578	1531	3500	1002	365
x2 = 0.2638	1608	1558	1514	1489	500	205
x2 = 0.3525	–	1536	1496	–	212	99
x2 = 0.4395	–	1518	–	–	106.7	–
x2 = 0.5589	–	–	1447	–	–	21.44
x2 = 0.7536	1447	1406	1365	8.43	5.82	4.39
x2 = 0.8231	1397	–	–	4.19	–	–
x2 = 0.8713	–	1304	1263	–	1.854	1.491
x2 = 0.8813	–	1292	1250	–	1.722	1.388
x2 = 0.9236	1274	1229	1186	1.416	1.133	0.93
x2 = 0.9436	1237	1192	1147	1.135	0.914	0.754
